Target: T1, recombinant human PTP1B (Homo sapiens, UniProt P18031)
T1 construct: without the carboxy terminal hydrophobic region (corresponding to 1-299 aa); FLAG (N); made in house; host or cells: Sf9 insect cells (baculovirus, Bac-to-Bac)
T1 sequence (P18031 1-299): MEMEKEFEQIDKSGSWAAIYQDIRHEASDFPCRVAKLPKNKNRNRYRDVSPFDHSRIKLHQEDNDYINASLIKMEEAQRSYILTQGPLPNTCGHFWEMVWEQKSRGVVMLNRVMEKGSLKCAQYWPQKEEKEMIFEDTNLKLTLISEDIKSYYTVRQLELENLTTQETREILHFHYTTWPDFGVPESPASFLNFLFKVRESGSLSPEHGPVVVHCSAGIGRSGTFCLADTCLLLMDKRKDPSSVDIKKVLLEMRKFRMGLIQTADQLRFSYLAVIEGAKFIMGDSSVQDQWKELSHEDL
Assay: Inhibiting phosphotyrosine phosphatase 1B (PTP1B), in-vitro phosphatase assay
Type: biochemical
Conditions: Table 2 Biological activity; substrate variant (phosphopeptide, p-nitrophenyl phosphate or DIFMUP) not stated
Source text: Inhibiting Phosphotyrosine Phosphatase 1B (PTP1B)
The setting up and implementation of an in-vitro assay for detecting a phosphatase-inhibiting effect of the compounds according to the invention are described below. The isolation of the enzyme preparation and the implementation of the assay are described. […]
This assay is based on releasing phosphate from a consensus substrate peptide which is detected in the nanomolar concentration range using the malachite green/ammonium molybdate method (Lanzetta, P. A., Alvarez, L. J., Reinach, P. S., Candia, O. A. Anal Biochem. 100: 95-97, 1979) as adapted for the microtiter plate format. […] After incubating at 22° C. for 30 min, in order to develop the color, the absorption at 650 nm was determined using a microtiter plate reader (Molecular Devices). Samples and blanks were measured in triplicate. The PTP1B activity was calculated as nanomoles of phosphate released per min and mg of protein using potassium phosphate as the standard. The inhibition of the recombinant hPTP1B by test substances was calculated as percentages of the phosphatase control. […]

IC50: 5.2 µM
Compound: CCCCn1nc(-c2cccc(Oc3ccccc3)c2)nc2c(=O)n(C)c(=O)nc1-2 [compound 5]

Reference: patent US7737144B2, “Pyrimido[5,4-e][1,2,4]triazine-5-7-diones, processes for preparing them and their use” (Sanofi-Aventis Deutschland GmbH, priority 2003, dated 2010)
